Reference: PMC7180484 (Molecules, 2020)

Columns and labels:
PC12 cells [1] = experiment: Neuroprotection against H2O2 induced oxidative stress cytotoxicity in PC12 cells (MTT assay); type: cell-based, rat; conditions: compound 40 μM; H2O2 200 µM; negative control 31% viability
Description: Cell viability was determined through trypan blue dye exclusion assay and cells were seeded to 96 well tissue culture plate at a 5 × 10^5 cells/well concentration. Pre-incubation with compounds were given to PC12 cells prior to inducing H2O2 cytotoxicity for 18 h. MTT was added to the well at 5 mg/mL concentration and incubated in the dark for enzymatic reaction by live cells for 2 h. DMSO was added to well to dissolve formazan crystals and absorbance was recorded at 570 nm. PC12 cells relative survival was calculated compared to control (PC12 cells only).

PC12 cells [2] = experiment: Aβ42 induced neurotoxicity in PC12 cells (MTT assay); conditions: 24 h
Description: Cells were seeded in 96 well plate in log phase of growth at concentration 5 × 10^5 cells per well. […] MTT solution was added to the wells and incubated in dark, for the live cells to convert the tetrazolium salt in purple formazan crystals. The formazan crystals were dissolved using DMSO and absorbance was measured at 570 nm. Relative survival percentage of PC12 cells was calculated compared to control (PC12 cells only). All measurements were performed in triplicates and all experiments were repeated thrice individually.

BACE-1 = molecular target: T1, BACE-1 (Homo sapiens, UniProt P56817); experiment: In vitro BACE-1 enzyme inhibition assay (FRET kit); type: biochemical
T1 construct: purchased Sigma Aldrich
Description: BACE-1 (EC 3.4.23.46) activity inhibition was assayed using FRET (fluorescence resonance energy transfer) kit (Sigma Aldrich, New Delhi, India). With all reaction components at RT, 50 μM substrate was added to 75 μL assay buffer containing RES and AJM (25, 50, 100 μM) in the microtiter plate. Reaction was initiated by the addition of 0.03 U BACE-1 enzyme in the well and zero minute fluorescence was recorded (Ex 350 nm, Em 405 nm). After 2 h incubation in dark at 37 °C, reaction fluorescence was recorded every one hour for next three hours. Relative fluorescence inhibition was calculated from zero minute fluorescence reading as control. Three individual experiments were performed.

Aβ42 [3] = molecular target: T2, Aβ42 (Homo sapiens, UniProt P05067); experiment: Transmission electron microscopy of Aβ42 aggregates; design: Aβ42—Amyloid beta 1-42 residues; purchased Link biotech (named in a list that ends 'purchased from Sigma Aldrich, India'); conditions: Aβ42 + 44 μM compound, 37 °C, 48 h; control: abundant long, branched, dense fibrils
Description: 5 μL Aβ42 prepared fibril samples (22 μM) Aβ42 alone and Aβ42 with RES and AJM) were loaded on carbon stabilized, formvar coated grid for 40 sec. Ashless filter paper was used to wipe out extra sample from the edges of the grid. Loaded grid was negatively stained with 1% uranyl acetate for 20 sec and air-dried. Grid was then examined and photographed on JEOL 2100F transmission electron microscope.

Aβ42 [4] = molecular target: T2, Aβ42; experiment: Circular dichroism spectroscopy of Aβ42 secondary structure (BeStSel); type: biochemical; design: Aβ42—Amyloid beta 1-42 residues; purchased Link biotech (named in a list that ends 'purchased from Sigma Aldrich, India'); conditions: for Secondary structure content: Others / Secondary structure content: α-helix / Secondary structure content: Turn / Secondary structure content: β-sheet (parallel) / Secondary structure content: β-sheet (antiparallel): Aβ42 22 μM + compound 22 μM, BeStSel from CD spectra; for Secondary structure content: Others / Secondary structure content: α-helix: Aβ42 control 0.0; for Secondary structure content: Turn: Aβ42 control 8.6; for Secondary structure content: β-sheet (parallel): Aβ42 control 16.5; for Secondary structure content: β-sheet (antiparallel): Aβ42 control 74.9; for inhibition in β-sheet formation: compared to control (Aβ42 only), CD, 48 h incubation
Description: Secondary structure of Aβ42 peptides were recorded as far UV circular dichroism spectra using Chirascan (Applied PhotoPhysics, New Delhi, India) instrument and software. 22 μM Aβ42 samples (22 μM Aβ42 alone and Aβ42 with RES and AJM) were mixed well ensuring a homogenous suspension and transferred to quartz cell for CD spectra scanning. CD spectra was recorded from 200–260 nm at RT using a bandwidth of 1.0 nm, times per point 0.5 sec, a step interval of 1 nm, and 10 mm path length. Five scans of each sample were measured and averaged. Averaged control buffer scans were subtracted from the sample spectra. The results of CD measurement were plotted as graph between measured ellipticity (millidegree) and wavelength (nm). The secondary structure contents (α-helix, β-sheet, turn, and random coil) of the Aβ42 peptide samples were estimated from the CD spectra using the CD Pro software. Relative percentage of reduced β-sheet content in Aβ42 samples treated with RES and AJM was calculated using BeStSel software.

Aβ42 [5] = molecular target: T2, Aβ42; experiment: Congo red dye binding (red shift) assay with Aβ42 fibrils; conditions: CR only 490 nm, Aβ42 only 530 nm
Description: Aβ42 alone sample was used as control. Samples were incubated at 37 °C at 260 rpm for 48 h in the shaker incubator.
Congo red (200 μM) was dissolved in a 50 mM phosphate buffer (pH 7.4) consisting of 50 mM NaCl and 10% ethanol and filtered through 0.45 µm CA membrane filter. The Aβ42 concentration was fixed at 10 µM in the reaction mixture. […] The absorbance spectra (400–650 nm) of the samples were recorded with a UV-visible spectrophotometer [27]. All experiments had three technological and three biological repeats.

BuChE = molecular target: T3, BuChE (Equus caballus, UniProt P81908); experiment: biochemical; conditions: mean ± SD, three replicate determinations
T3 construct: butyrylcholinesterase from equine serum; purchased Sigma Aldrich, India; host or cells: equine serum
Description: (§1) MAO-B inhibition kit by Biovision. BACE-1 activity assay kit by Sigma Aldrich. […] PC12 (rat pheochromocytoma) cell line was obtained from NCCS, Pune, India. All other reagents used were of analytical grade. All preparations used in tissue culture experiments were filtered through 0.45 µm Axiva 25 mm CA filter. Ethical approval was obtained from GGS Indrapratha University for all the cell culture work done in proper confined facilities.
(§2) Five microliters of enzyme (AChE and BuChE) solution at 0.03 U/mL final assay concentration; 200 μL of phosphate buffer (pH 8); 5 μL of DTNB (0.3 mM); and 5 μL of test compounds were pre-incubated for 15 min at RT. The reaction was initiated by adding 5 μL of substrate (ATChI and BuTChI) at a final concentration of 0.5 mM. The control for relative absorbance consisted of the buffer in place of the test compounds and the enzyme and substrate blank were devoid of enzyme and the substrate, respectively.

AChE = molecular target: T4, AChE (Electrophorus electricus, UniProt O42275); experiment: biochemical; conditions: for SI (selectivity index): AChE selectivity over BuChE, IC50 BuChE/IC50 AChE; for IC50: mean ± SD, three replicate determinations
T4 construct: acetylcholinesterase from electric eel; purchased Sigma Aldrich, India
Description: as §1, §2

MAO-B = molecular target: T5, MAO-B (Homo sapiens, UniProt P27338); experiment: MAO-B inhibition assay (Biovision fluorometric kit); type: biochemical
T5 construct: purchased Biovision
T5 sequence (P27338 1-520): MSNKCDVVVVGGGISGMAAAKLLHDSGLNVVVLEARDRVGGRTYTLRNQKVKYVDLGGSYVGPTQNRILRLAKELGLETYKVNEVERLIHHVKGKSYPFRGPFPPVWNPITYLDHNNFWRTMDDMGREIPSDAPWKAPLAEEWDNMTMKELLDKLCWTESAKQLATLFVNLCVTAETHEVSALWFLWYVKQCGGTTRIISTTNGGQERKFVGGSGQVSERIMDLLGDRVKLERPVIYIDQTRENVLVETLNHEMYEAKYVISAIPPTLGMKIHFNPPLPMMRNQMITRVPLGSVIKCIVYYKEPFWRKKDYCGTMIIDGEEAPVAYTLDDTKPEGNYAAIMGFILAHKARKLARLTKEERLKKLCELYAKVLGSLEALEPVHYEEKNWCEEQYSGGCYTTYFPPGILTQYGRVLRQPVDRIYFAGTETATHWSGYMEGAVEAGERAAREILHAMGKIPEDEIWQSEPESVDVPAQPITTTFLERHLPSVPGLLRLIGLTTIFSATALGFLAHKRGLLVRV
Description: MAO-B (EC 1.4.3.4) activity inhibition was assayed using Biovision inhibition screening kit (fluorometric). With all reaction components at room temperature, 0.2 U enzyme was pre-incubated with compounds under study and incubated for 10 min. Working substrate was prepared fresh by adding developer and oxired probe with assay buffer according to kit instructions. Substrate was added to the reaction and incubated for 10 min; zero-minute fluorescence was recorded (Ex 535 nm, Em 587 nm) to serve as control for relative fluorescence inhibition calculation.

Aβ42 [6] = molecular target: T2, Aβ42; experiment: ThT fluorescence assay of Aβ42 fibril formation (anti-aggregation); type: biochemical; design: Aβ42—Amyloid beta 1-42 residues; purchased Link biotech (named in a list that ends 'purchased from Sigma Aldrich, India'); conditions: vs control (Aβ42 only), 48 h; for inhibition of Aβ42 aggregation (ThT fluorescence): at 44 μM
Description: Aβ42 samples were incubated with or without compounds at different concentrations, after 48 h of fibril formation samples from each experimental set were withdrawn and mixed with ThT in opaque micro titer plate. The reactions were then incubated in dark at 37 °C for 30 min for ThT probe to bind the formed amyloid fibrils. The ThT was excited at 450 nm and spectra were recorded from 400 to 650 nm.

T2 sequence (P05067 672-713 limits assumed): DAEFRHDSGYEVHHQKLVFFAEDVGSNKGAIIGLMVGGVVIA
T4 sequence (O42275 24-633): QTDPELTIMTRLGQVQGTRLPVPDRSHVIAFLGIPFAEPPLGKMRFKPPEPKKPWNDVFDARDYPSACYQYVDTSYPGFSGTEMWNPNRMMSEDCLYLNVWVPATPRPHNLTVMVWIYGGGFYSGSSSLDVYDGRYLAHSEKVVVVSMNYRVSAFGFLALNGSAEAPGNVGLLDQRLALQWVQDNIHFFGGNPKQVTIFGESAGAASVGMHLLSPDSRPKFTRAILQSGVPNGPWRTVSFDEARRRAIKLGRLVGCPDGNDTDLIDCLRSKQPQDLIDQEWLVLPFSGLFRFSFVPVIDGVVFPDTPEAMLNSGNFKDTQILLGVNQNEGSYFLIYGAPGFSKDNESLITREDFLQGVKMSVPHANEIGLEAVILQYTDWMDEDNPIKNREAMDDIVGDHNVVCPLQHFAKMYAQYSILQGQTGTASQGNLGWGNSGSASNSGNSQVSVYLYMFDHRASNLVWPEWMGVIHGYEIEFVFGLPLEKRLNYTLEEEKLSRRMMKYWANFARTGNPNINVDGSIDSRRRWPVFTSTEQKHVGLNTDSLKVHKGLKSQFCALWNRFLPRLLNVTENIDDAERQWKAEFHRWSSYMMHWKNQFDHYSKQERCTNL
T3 sequence (P81908 whole entry): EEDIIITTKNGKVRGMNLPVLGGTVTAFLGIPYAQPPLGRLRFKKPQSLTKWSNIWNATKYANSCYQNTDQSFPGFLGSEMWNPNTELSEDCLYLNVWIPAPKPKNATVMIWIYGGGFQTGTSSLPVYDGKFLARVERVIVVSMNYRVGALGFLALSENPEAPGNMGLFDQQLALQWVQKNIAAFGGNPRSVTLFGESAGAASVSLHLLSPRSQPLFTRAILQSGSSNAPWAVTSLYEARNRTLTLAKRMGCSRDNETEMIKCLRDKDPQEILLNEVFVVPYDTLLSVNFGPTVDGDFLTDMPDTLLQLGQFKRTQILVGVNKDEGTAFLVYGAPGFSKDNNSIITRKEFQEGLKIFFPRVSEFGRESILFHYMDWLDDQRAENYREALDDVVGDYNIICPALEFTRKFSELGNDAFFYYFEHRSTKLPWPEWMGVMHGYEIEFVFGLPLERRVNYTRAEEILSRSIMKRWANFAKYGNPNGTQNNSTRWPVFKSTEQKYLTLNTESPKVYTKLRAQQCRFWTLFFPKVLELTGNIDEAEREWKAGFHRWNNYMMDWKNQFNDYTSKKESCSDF
T1 sequence (P56817 46-501): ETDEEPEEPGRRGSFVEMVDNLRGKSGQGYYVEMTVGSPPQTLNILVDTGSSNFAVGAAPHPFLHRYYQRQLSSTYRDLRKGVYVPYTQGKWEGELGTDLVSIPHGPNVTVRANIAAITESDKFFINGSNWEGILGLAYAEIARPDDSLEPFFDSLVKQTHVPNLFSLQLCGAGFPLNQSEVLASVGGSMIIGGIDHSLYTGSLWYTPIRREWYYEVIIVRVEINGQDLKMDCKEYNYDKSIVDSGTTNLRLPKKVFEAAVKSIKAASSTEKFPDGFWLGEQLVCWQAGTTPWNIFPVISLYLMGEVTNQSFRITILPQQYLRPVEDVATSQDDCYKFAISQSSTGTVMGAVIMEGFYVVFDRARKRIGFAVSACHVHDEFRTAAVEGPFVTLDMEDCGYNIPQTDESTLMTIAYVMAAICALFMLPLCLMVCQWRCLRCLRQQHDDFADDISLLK

Compound	survival of PC12 cells against H2O2 induced oxidative stress (MTT) (PC12 cells [1]) [%]	morphology of Aβ42 aggregates by TEM (Aβ42 [3])	Secondary structure content: Others (Aβ42 [4]) [%]	Secondary structure content: α-helix (Aβ42 [4]) [%]	Secondary structure content: Turn (Aβ42 [4]) [%]	Secondary structure content: β-sheet (parallel) (Aβ42 [4]) [%]	Secondary structure content: β-sheet (antiparallel) (Aβ42 [4]) [%]	inhibition in β-sheet formation (Aβ42 [4]) [%]	Congo red absorbance wavelength (red shift) with Aβ42 (Aβ42 [5]; Aβ42 + compound 22 μM) [nm]	Congo red absorbance wavelength (red shift) with Aβ42 (Aβ42 [5]; Aβ42 + compound 44 μM) [nm]	IC50 (BuChE) [µM]	SI (selectivity index) (AChE)	IC50 (AChE) [µM]	inhibition of Aβ42 aggregation (ThT fluorescence) (Aβ42 [6]) [%]	survival of PC12 cells against Aβ42 cytotoxicity (MTT) (PC12 cells [2]; rat, 40 μM) [%]	also measured
COC(=O)C1=CO[C@@H](C)[C@H]2CN3CCc4c([nH]c5ccccc45)[C@@H]3C[C@H]12 [Ajmalicine]	89	shorter, loose, and less Aβ42 fibrils along with small oligomers	53.1	0.0	11.7	0.0	35.2	53	510	510	5.44 ± 1.75	1.55	3.5 ± 1.41	57	–	survival of PC12 cells against Aβ42 cytotoxicity (MTT) (PC12 cells [2]; compound 40 μM, Aβ42 fibrils 40 μM): 67%; inhibition of BACE-1 activity (BACE-1; at 50 μM): 69%; AChE inhibition (AChE; at 50 μM): 90%; MAO-B inhibition (MAO-B; at 40 μM): 89%
COC(=O)[C@H]1[C@H]2C[C@@H]3c4[nH]c5cc(OC)ccc5c4CCN3C[C@H]2C[C@@H](OC(=O)c2cc(OC)c(OC)c(OC)c2)[C@@H]1OC [Reserpine]	93	shorter, loose, and less Aβ42 fibrils along with small oligomers	54.9	0.0	17.8	0.0	27.3	64	510	510	2.8 ± 1.84	1.65	1.7 ± 2.08	–	92	inhibition at 50 µM (BACE-1): 47%; inhibition at 50 µM (AChE; read-out: AChE inhibition): 96%; inhibition at 40 µM (MAO-B): 89%; inhibition at 44 µM (Aβ42 [6]): 69%
N[C@@H](CCC(=O)N[C@@H](CS)C(=O)NCC(=O)O)C(=O)O [glutathione]	91	–	–	–	–	–	–	–	–	–	–	–	–	–	–	–
NCCCS(=O)(=O)O [homotaurine]	–	–	–	–	–	–	–	–	–	–	–	–	–	–	58	–
Tannic acid	–	–	–	–	–	–	–	–	–	–	–	–	–	85	–	–
